Laboratory results published in article PMC9607545, “Cry4Aa and Cry4Ba Mosquito-Active Toxins Utilize Different Domains in Binding to a Particular Culex ALP Isoform: A Functional Toxin Receptor Implicating Differential Actions on Target Larvae” (Toxins, 2022).

Experiments:
Cq-mALP1263 = target: T1, Cq-mALP1263 (Culex quinquefasciatus, UniProt A0A9E8ACD0); assay: hydrolysis in Sf9 cell lysate, absorbance of p-nitrophenol at […] nm; type: biochemical; conditions: 5 mM pNPP, 100 mM Tris-HCl pH 9.5, 5 mM MgCl2, 100 mM NaCl, 30 °C, 10 min; control: CAT-expressing lysate (endogenous ALP activity present)
T1 construct: full-length ORF, 523 residues, ~57 kDa, 1569 bp cDNA from 4th instar larval midgut; N-terminal signal peptide and predicted GPI anchor; baculovirus (AcMNPV) expression in Sf9 cells
T1 sequence (A0A9E8ACD0 19-523): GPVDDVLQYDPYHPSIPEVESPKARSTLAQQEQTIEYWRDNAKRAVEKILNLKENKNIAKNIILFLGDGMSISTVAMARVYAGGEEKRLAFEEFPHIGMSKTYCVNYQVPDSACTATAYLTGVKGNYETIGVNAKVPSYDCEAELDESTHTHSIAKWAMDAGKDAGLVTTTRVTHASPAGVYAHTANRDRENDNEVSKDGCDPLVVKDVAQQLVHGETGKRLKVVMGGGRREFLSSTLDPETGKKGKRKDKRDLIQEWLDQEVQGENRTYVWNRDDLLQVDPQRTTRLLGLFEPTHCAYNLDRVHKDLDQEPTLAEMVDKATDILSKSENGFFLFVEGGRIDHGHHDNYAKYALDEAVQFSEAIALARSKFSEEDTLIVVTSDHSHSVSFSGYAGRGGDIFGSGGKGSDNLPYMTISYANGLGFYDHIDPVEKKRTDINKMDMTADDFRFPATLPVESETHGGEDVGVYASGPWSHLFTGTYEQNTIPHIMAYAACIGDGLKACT

Cq-mALP1264 = target: T2, Cq-mALP1264 (Culex quinquefasciatus, UniProt A0A9E8AEX0); assay: as above; type: biochemical; conditions: 5 mM pNPP, 100 mM Tris-HCl pH 9.5, 5 mM MgCl2, 100 mM NaCl, 30 °C, 10 min; control: CAT-expressing lysate (endogenous ALP activity present)
T2 construct: full-length ORF, 552 residues, ~61 kDa, 1656 bp cDNA from 4th instar larval midgut; N-terminal signal peptide and predicted GPI anchor; baculovirus (AcMNPV) expression in Sf9 cells
T2 sequence (A0A9E8AEX0 21-552): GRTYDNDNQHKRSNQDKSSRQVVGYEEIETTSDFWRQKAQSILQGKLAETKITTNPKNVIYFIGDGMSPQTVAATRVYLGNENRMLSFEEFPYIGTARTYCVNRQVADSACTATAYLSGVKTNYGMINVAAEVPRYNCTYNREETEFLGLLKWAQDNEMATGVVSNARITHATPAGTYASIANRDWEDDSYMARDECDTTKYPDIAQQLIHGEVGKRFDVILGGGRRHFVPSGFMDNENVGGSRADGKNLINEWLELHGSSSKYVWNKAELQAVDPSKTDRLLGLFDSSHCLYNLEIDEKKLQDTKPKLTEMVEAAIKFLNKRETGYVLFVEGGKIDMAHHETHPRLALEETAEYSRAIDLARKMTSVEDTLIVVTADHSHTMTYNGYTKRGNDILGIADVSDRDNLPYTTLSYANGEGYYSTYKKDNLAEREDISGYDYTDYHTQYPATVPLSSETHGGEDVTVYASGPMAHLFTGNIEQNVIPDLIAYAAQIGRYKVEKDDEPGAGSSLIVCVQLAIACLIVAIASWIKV

## O=[N+]([O-])c1ccc(OP(=O)(O)O)cc1 [pNPP]
Cq-mALP1263
  hydrolysis in Sf9 cell lysate, absorbance of p-nitrophenol at 405 nm: both Cq-mALP-expressed cells produced significantly higher ALP activity than CAT-expressed cells
Cq-mALP1264
  hydrolysis in Sf9 cell lysate, absorbance of p-nitrophenol at 405 nm: both Cq-mALP-expressed cells produced significantly higher ALP activity than CAT-expressed cells
